Data: the NIST ThermoML archive (doi:10.1016/j.tca.2011.01.039)
± gives the expanded uncertainty stated by the source.

Conditions: Fluid (supercritical or subcritical phases)

O=C=O [carbon dioxide]
mass density [kg/m3]
Conditions	10000 kPa	12000 kPa	15000 kPa	18000 kPa	21000 kPa
308 K	714.84 ± 7.1	768.42 ± 5.7	816.06 ± 5.3	848.87 ± 5.2	874.4 ± 5.2
318 K	502.57 ± 9.6	659.73 ± 7.3	743.17 ± 5.7	790.18 ± 5.3	823.71 ± 5.2
328 K	326.4 ± 11	506.85 ± 9	654.94 ± 6.6	724.13 ± 5.5	768.74 ± 5.3
